Patent US10093694B2, “Compounds for treating eye disorders or diseases” (Guangzhou KangRui Biological Pharmaceutical Technology Co, …, priority 2016, dated 2018)

Key:
[1] = tested on: mouse eyes (cataract); assay: Cataract studies: mouse eyes treated with eye drop solution; type: in vivo; details: eye drop solution 100 μM, three times a day, 50 μl each time, 6 weeks, versus negative control
Protocol: FIGS. 16A and 16B show the result of mouse eyes treated with an eye drop solution containing Compound 1 at 100 μM concentration three times a day for 50 μl each time for 6 weeks.

[2] = tested on: mouse lenses (cataract); assay: Cataract studies: dissected mouse cataract lenses incubated with compound, scored for clarity; details: incubated with compound at the indicated concentrations for 4 hours at room temperature, PBS negative control showed no lens opacity change
Protocol: (§1) FIGS. 14A and 14B show cataract lenses that have been treated with Compound 1. FIG. 14A show mouse lenses (white) that were dissected from the eye and placed into phosphate buffered saline solution (PBS) overnight at 4° C. Cataract was visible in all lenses. The cataract lenses were incubated with Compound 1 at the indicated concentration for 4 hours at room temperature and then scored for clarity. […] The PBS solution served as negative control and there were no lens opacity change.
as §1, with “15A” for “14A”, “15B” for “14B”, “2.” for “1.”, “2” for “1”

SMILES	clarity / cataract of treated eye [1]	lens clarity / cataract after treatment [2]
C[C@H](CCC(Br)C(C)(C)O)[C@H]1CC[C@@]2(C)C3=C(CC[C@]12C)[C@@]1(C)CC[C@H](O)C(C)(C)[C@@H]1CC3 (stereo partly drawn) [Compound 1, (3S,5R,10S,13R,14R,17R)-17-((2R)-5-bromo-6-hydroxy-6-methylheptan-2-yl)-4,4,10,13,14-pentamethyl-2,3,4,5,6,7,10,11,12,13,14,15,16,17-tetradecahydro-1H-cyclopenta[a]phenanthren-3-ol]	increased clarity and reduced cataract	Increased lens clarity and reduced cataract
C[C@H](CCCC(C)(C)O)[C@H]1CC[C@@]2(C)C3=C(CC[C@]12C)[C@@]1(C)CC[C@H](O)C(C)(C)[C@@H]1CC3 [Compound 2, (3S,5R,10S,13R,14R,17R)-17-((R)-6-hydroxy-6-methylheptan-2-yl)-4,4,10,13,14-pentamethyl-2,3,4,5,6,7,10,11,12,13,14,15,16,17-tetradecahydro-1H-cyclopenta[a]phenanthren-3-ol]		Increased lens clarity and reduced cataract
